Reference: patent publication US20150147273A1, “RADIOLABELED ANALOG(S) OF COMPOUND 0118 AND USE THEREOF IN CONNECTION WITH PET AND/OR SPECT IMAGING TO DETERMINE WHETHER A PHARMACEUTICAL CONTAINING COMPOUND 0118 IS A CANDIDATE CANCER TREATMENT FOR A PATIENT” (KONINKLIJKE PHILIPS N.V., priority 2012, published 2015)

System: MA148 human ovarian carcinoma cells
Assay: [3H]thymidine incorporation cell proliferation assay (FIG. 15)
Assay type: cell-based
Conditions: compared with 0118
From the text: Evaluation of the anti-angiogenic activity of lower-rim substituted 0118 analogues (compound 4, compound 5) and equatorially substituted 0118 analogues (compound 13, compound 14, compound 18a, compound 18b, compound 18c).

Compound | potency of inhibition of MA148 cell proliferation relative to parent compound 0118
C#CCCOc1c2cccc1Cc1cccc(c1OCC(=O)NCCN(C)C)Cc1cccc(c1OCC(=O)NCCN(C)C)Cc1cccc(c1OCC(=O)NCCN(C)C)C2 [compound 4, 25,26,27-Tris-N—(N,N-dimethyl-2-aminoethyl)carbamoylmethoxy-28-(3′-butynyloxy)calix[4]arene] | at least equipotent
CN(C)CCNC(=O)COc1c2cccc1Cc1cccc(c1OCC(=O)NCCN(C)C)Cc1cccc(c1OCC(=O)NCCN(C)C)Cc1cccc(c1OCCc1cn(CCF)nn1)C2 [compound 5, 25,26,27-Tris-N—(N,N-dimethyl-2-aminoethyl)carbamoylmethoxy-28-{2′-[1-(2-fluorethyl)-1H-[1,2,3]triazo-4-yl]ethyloxy}calix[4]arene] | more potent inhibitor of MA148 cell proliferation
C#CCC1c2cccc(c2OCC(=O)NCCN(C)C)Cc2cccc(c2OCC(=O)NCCN(C)C)Cc2cccc(c2OCC(=O)NCCN(C)C)Cc2cccc1c2OCC(=O)NCCN(C)C [compound 13, 25,26,27,28-Tetrakis-N—(N,N-dimethyl-2-aminoethyl)carbamoylmethoxy-2-(prop-2′-yn-1′-yl)calix[4]arene] | at least three times more potent than 0118
CN(C)CCNC(=O)COc1c2cccc1Cc1cccc(c1OCC(=O)NCCN(C)C)C(Cc1cn(CCF)nn1)c1cccc(c1OCC(=O)NCCN(C)C)Cc1cccc(c1OCC(=O)NCCN(C)C)C2 [compound 14, 25,26,27,28-Tetrakis-N—(N,N-dimethyl-2-aminoethyl)carbamoylmethoxy-2-{[1-(2-fluorethyl)-1H-[1,2,3]triazo-4-yl]methyl}calix[4]arene] | at least three times more potent than 0118
CCCC1c2cccc(c2OCC(=O)NCCN(C)C)Cc2cccc(c2OCC(=O)NCCN(C)C)Cc2cccc(c2OCC(=O)NCCN(C)C)Cc2cccc1c2OCC(=O)NCCN(C)C [compound 18b, 25,26,27,28-Tetrakis-N—(N,N-dimethyl-2-aminoethyl)carbamoylmethoxy-2-propylcalix[4]arene] | at least three times more potent than 0118

System: endothelial cell proliferation
Assay: endothelial cell proliferation assays
Assay type: cell-based
Conditions: not given
From the text: As an alternative to upper-rim substitution, [^18F]-labeled synthons may also be introduced at the lower rim or at an equatorial position of the calix[4]arene core of compound 0118. […] Based on this knowledge, close mimetics of compound 0118 have been produced, where one of the four lower rim substituents is replaced by a substituent containing an alkyne- or azide-functional group, providing access to [^18F]fluoroalkyltriazole-labeled compound 0118 analogues via Huisgen 1,3-dipolar cycloaddition reaction with the corresponding [^18F]fluoroalkynes and [^18F]fluoroazides, respectively.

Compound | anti-angiogenic potency compared with compound 0118
CN(C)CCNC(=O)COc1c2cccc1Cc1cccc(c1OCC(=O)NCCN(C)C)Cc1cccc(c1OCC(=O)NCCN(C)C)Cc1cccc(c1OCCc1cn(CCF)nn1)C2 [compound 5, 25,26,27-Tris-N—(N,N-dimethyl-2-aminoethyl)carbamoylmethoxy-28-{2′-[1-(2-fluorethyl)-1H-[1,2,3]triazo-4-yl]ethyloxy}calix[4]arene] | comparable anti-angiogenic potency
